These results are taken from publication PMC11359332, “Characterization of Neonicotinoid Metabolites by Cytochrome P450-Mediated Metabolism in Poultry” (Toxics, 2024).

The structures appear in SMILES notation.

Data set [1] has as its system rat liver microsomes (CYP). Kind of data set: In vitro CYP metabolism of neonicotinoids, rat liver microsomes, metabolites quantified by LC/MS/MS. In kind it is in vitro ADME. The method, then: (§1) All experimental protocols and animal-handling procedures were performed following the guidelines for animal experiments and approved by the Animal Ethics Research Committee of the Faculty of Veterinary Medicine, […] University, Bangkok, Thailand (Approval number: […]-026). Liver samples of chickens (Gallus domesticus, n = 5), ducks (Anas platyrhynchos, n = 5), […] domesticus, n = 3), quails (Coturnix coturnix, n = 5), and rats (Rattus norvegicus, n = 3) were obtained from the previous study. The liver microsomal fractions used in this study were prepared by the method of Omura and Sato [28] with slight modifications. Briefly, liver sample was homogenized with 0.1 M potassium phosphate buffer (KPB, pH 7.4) and centrifuged at 9000× g at 4 °C for 20 min. The supernatant was collected and centrifuged twice at 105,000× g at 4 °C for 60 min. Microsomal pellets were homogenized with 0.1 M KPB and measured for protein concentrations using the BCA protein assay kit (Thermo Fisher Scientific, Rockford, IL, USA) before being frozen using liquid nitrogen, for storage at -80 °C until analysis. The assay of neonicotinoid metabolism using liver microsome was modified from that of a previous study. Since we had insufficient liver samples to produce the microsomes of geese and quails, the substrates of imidacloprid and clothianidin were not applied for those microsome reactions. However, microsomes of chicken, ducks, and rats were used for all substrate reactions. […] Then, the reaction was initiated by adding a mixture of G6PDH (2 IU/mL) and β-NADPH (0.5 mM), and continuously incubating for 30 min. Then, 0.1% formic acid in acetonitrile was added to stop the reaction. After that, the reaction sample was placed on ice for 15 min before centrifugation at 12,000 g for 10 min. The supernatant (100 μL) was collected and then spiked with neonicotinoid internal standard mixtures (50 μL), then evaporated using a centrifugal evaporator (CVE-200D with UT-2000, EYELA, Tokyo, Japan). The dried sample was re-dissolved with 20% methanol (v/v) and transferred into vials for chemical analysis. […] For all analyses, mobile phase A consisted of 0.1% formic acid + 10 mM ammonium acetate in distilled water and mobile phase B consisted of 0.1% formic acid + 10 mM ammonium acetate in 100% MeOH. The injection volume of 5 μL, the flow rate of 0.40 mL/min with gradient elution, and a column temperature of 45 °C were used for all experiments. The ion signals were acquired with multiple-reaction monitoring (MRM) in positive ionization mode. In the current study, the liver microsome was spiked with deuterium-labelled internal standards (ISs) of the target neonicotinoids before the extraction and purification processes. […] The calibration curves were created using 10-point calibration standards ranging from 0.05 to 20 ng/mL. […] The accuracy of the current analytical method was validated and determined using matrix-spiked neonicotinoid standards at two concentrations, 1 ng/mL and 10 ng/mL. The thirteen target compounds were detected with recovery rates ranging from 87 to 101% at 1 ng/mL, and 86 to 116% at 10 ng/mL. […] In the current study, all the assays were performed in duplicates and the negative controls (the reaction mixture without substrate) were prepared for each sample. […] Statistical analyses were conducted using the JMP […] software (SAS Institute, Carry, NC, USA). One-way ANOVA with post-hoc Tukey-Kramer multiple comparison test was used to compare the Vmax/Km ratio among species. All results were presented as the mean ± standard deviation (SD).
On the technique in general: Liver microsomes are vesicles of endoplasmic reticulum, rich in cytochrome P450 enzymes.

Data set [2] concerns liver microsomes from various species. The experiment in a line: Metabolite screening by LC/Q-TOF in reaction mixtures using liver microsomes from various species. Type of data set: in vitro ADME, chicken, duck, goose, quail, rat. The protocol: The assay of neonicotinoid metabolism using liver microsome was modified from that of a previous study. Since we had insufficient liver samples to produce the microsomes of geese and quails, the substrates of imidacloprid and clothianidin were not applied for those microsome reactions. However, microsomes of chicken, ducks, and rats were used for all substrate reactions. […] Then, the reaction was initiated by adding a mixture of G6PDH (2 IU/mL) and β-NADPH (0.5 mM), and continuously incubating for 30 min. Then, 0.1% formic acid in acetonitrile was added to stop the reaction. After that, the reaction sample was placed on ice for 15 min before centrifugation at 12,000 g for 10 min. The supernatant (100 μL) was collected and then spiked with neonicotinoid internal standard mixtures (50 μL), then evaporated using a centrifugal evaporator (CVE-200D with UT-2000, EYELA, Tokyo, Japan). The dried sample was re-dissolved with 20% methanol (v/v) and transferred into vials for chemical analysis.
A liquid chromatograph quadrupole time-of-flight (6546 LC/Q-TOF; Agilent Technologies, Santa Clara, CA, USA) operated with a 1.8 μm Eclipse Plus C18 RRHD analytical column (2.1 × 150 mm; Agilent Technologies, CA, USA) at a flow rate of 0.25 mL/min was used in the screening test to search for chromatographic peaks with the exact molecular mass of the possible neonicotinoid metabolites (Table S3). The mobile phases were 10 mM ammonium formate in water (A) and 10 mM ammonium formate in MeOH (B). The gradient elution of mobile phase B was set as follows: 2% (0–1 min), 100% (1–30 min), continued 100% (30–39 min), and a 4 min post-run at 2%. An injection volume was 5 μL and the column temperature was maintained at 45 °C. The expected formulas of potential metabolites of the four neonicotinoids were derived from previous publications on neonicotinoid metabolites in environment samples [29, 30] and in animals.
Several neonicotinoid metabolites were formed in our current in vitro biotransformation assays (Table 1).

In data set [3] the test system is quail liver microsomes (CYP). Kind of data set: In vitro CYP metabolism of neonicotinoids, quail liver microsomes, metabolites quantified by LC/MS/MS. In kind it is in vitro ADME, quail (Coturnix coturnix). The protocol:
(§2) All experimental protocols and animal-handling procedures were performed following the guidelines for animal experiments and approved by the Animal Ethics Research Committee of the Faculty of Veterinary Medicine, […] University, Bangkok, Thailand (Approval number: […]-026). Liver samples of chickens (Gallus domesticus, n = 5), ducks (Anas platyrhynchos, n = 5), […] domesticus, n = 3), quails (Coturnix coturnix, n = 5), and rats (Rattus norvegicus, n = 3) were obtained from the previous study. The liver microsomal fractions used in this study were prepared by the method of Omura and Sato [28] with slight modifications. Briefly, liver sample was homogenized with 0.1 M potassium phosphate buffer (KPB, pH 7.4) and centrifuged at 9000× g at 4 °C for 20 min. The supernatant was collected and centrifuged twice at 105,000× g at 4 °C for 60 min. Microsomal pellets were homogenized with 0.1 M KPB and measured for protein concentrations using the BCA protein assay kit (Thermo Fisher Scientific, Rockford, IL, USA) before being frozen using liquid nitrogen, for storage at -80 °C until analysis. […] The accuracy of the current analytical method was validated and determined using matrix-spiked neonicotinoid standards at two concentrations, 1 ng/mL and 10 ng/mL. The thirteen target compounds were detected with recovery rates ranging from 87 to 101% at 1 ng/mL, and 86 to 116% at 10 ng/mL. […]

The subject of data set [4] is duck liver microsomes (CYP). Kind of data set: In vitro CYP metabolism of neonicotinoids, duck liver microsomes, metabolites quantified by LC/MS/MS. In kind it is in vitro ADME, duck (Anas platyrhynchos). The method, then:
as §1

Data set [5] relates to goose liver microsomes (CYP). The experiment in a line: In vitro CYP metabolism of neonicotinoids, goose liver microsomes, metabolites quantified by LC/MS/MS. Type of data set: in vitro ADME, goose (Anser domesticus). The protocol:
as §2

In data set [6] the test system is chicken liver microsomes (CYP). The experiment in a line: In vitro CYP metabolism of neonicotinoids, chicken liver microsomes, metabolites quantified by LC/MS/MS. Type of data set: in vitro ADME, chicken (Gallus domesticus). The protocol:
as §1

In data set [7] the test system is nicotinic acetylcholine receptors. To be noted: cited from earlier work.
Another data set has as its system fish leukocytes. Set-up: method as in PMID 38594566. To be noted: compared with parent substances; cited from earlier work.
Where [8] appears, read: clothianidin to clothianidin-urea.
Setting [9] is: clothianidin to dn-clothianidin.
[10] abbreviates: clothianidin to dm-clothianidin.
Where [11] appears, read: imidacloprid to 4OH-imidacloprid.
The mark [12] stands for this setting: imidacloprid to 5OH-imidacloprid.
The mark [13] stands for this setting: imidacloprid to dn-imidacloprid.
Setting [14] is: imidacloprid to imidacloprid-olefin.

Turning to `C/C(=N\C#N)N(C)Cc1ccc(Cl)nc1` [Acetamiprid], the Vmax is on record as 0.1 ± 0.0 pmol/min/mg protein in data set [1] (acetamiprid to dm-acetamiprid); 0.3 ± 0.1 pmol/min/mg protein in data set [3] (acetamiprid to dm-acetamiprid); 0.4 ± 0.0 pmol/min/mg protein in data set [4] (acetamiprid to dm-acetamiprid); 1.3 ± 0.2 pmol/min/mg protein in data set [5] (acetamiprid to dm-acetamiprid); 1.2 ± 0.0 pmol/min/mg protein in data set [6] (acetamiprid to dm-acetamiprid). Moreover, the “Species in which metabolite N-[(6-chloro-3-pyridyl) methyl]-N-methyl acetamidine was identified” value in data set [2] (substrate acetamiprid 800 µM) was “Duck, Goose, Quail, Rat”. Moreover, the “Species in which metabolite N-desmethyl-acetamiprid was identified” value in data set [2] (substrate acetamiprid 800 µM) is “Chicken, Duck, Goose, Quail, Rat”. In data set [2] (substrate acetamiprid 800 µM), the “Species in which metabolite N-methyl(6-chloro-3-pyridyl) methylamine was identified” value is “Chicken, Duck, Goose, Quail, Rat”.
Regarding `CN/C(=N\[N+](=O)[O-])NCc1cnc(Cl)s1` [Clothianidin], the Vmax is reported as 0.012 ± 0.002 pmol/min/mg protein in data set [1] (setting [8]); 0.2 ± 0.0 pmol/min/mg protein in data set [1] (setting [9]); 0.005 ± 0.001 pmol/min/mg protein in data set [4] (setting [8]); 2.9 ± 1.3 pmol/min/mg protein in data set [4] (setting [10]); 0.3 ± 0.1 pmol/min/mg protein in data set [4] (setting [9]); 0.008 ± 0.001 pmol/min/mg protein in data set [6] (setting [8]). In addition, the Vmax in data set [6] (setting [10]) was found to be 4.4 ± 1.2 pmol/min/mg protein; in data set [6] (setting [9]), 0.1 ± 0.0 pmol/min/mg protein. For the same molecule, in data set [7], the “Affinity to nicotinic acetylcholine receptors” value is “high affinity to nicotinic acetylcholine receptors”. For the same molecule, the “Species in which metabolite clothianidin-urea was identified” value in data set [2] (substrate clothianidin 800 µM, goose and quail not analyzed) is recorded as “Chicken, Duck, Rat”.
In the case of `O=[N+]([O-])NC1=NCCN1Cc1ccc(Cl)nc1` [Imidacloprid], the Vmax in data set [1] (setting [11]) is given as 0.1 ± 0.0 pmol/min/mg protein; in data set [1] (setting [12]), 0.1 ± 0.0 pmol/min/mg protein; in data set [1] (setting [13]) it was 0.1 ± 0.0 pmol/min/mg protein; in data set [4] (setting [11]) it was 0.1 ± 0.0 pmol/min/mg protein; in data set [4] (setting [12]), 0.1 ± 0.0 pmol/min/mg protein; in data set [4] (setting [13]) it was 0.2 ± 0.0 pmol/min/mg protein. For the same molecule, the Vmax in data set [4] (setting [14]) was determined as 0.03 ± 0.0 pmol/min/mg protein; in data set [6] (setting [11]), 0.5 ± 0.0 pmol/min/mg protein; in data set [6] (setting [12]), 0.5 ± 0.0 pmol/min/mg protein; in data set [6] (setting [13]), 1.0 ± 0.7 pmol/min/mg protein; in data set [6] (setting [14]), 0.2 ± 0.0 pmol/min/mg protein.
On to `CN1COCN(Cc2cnc(Cl)s2)/C1=N\[N+](=O)[O-]` [Thiamethoxam], for which the Vmax is on record as 0.1 ± 0.0 pmol/min/mg protein in data set [1] (thiamethoxam to clothianidin); 0.4 ± 0.1 pmol/min/mg protein in data set [3] (thiamethoxam to clothianidin); 0.1 ± 0.0 pmol/min/mg protein in data set [4] (thiamethoxam to clothianidin); 0.2 ± 0.1 pmol/min/mg protein in data set [5] (thiamethoxam to clothianidin); 1.2 ± 0.0 pmol/min/mg protein in data set [6] (thiamethoxam to clothianidin); 0.01 ± 0.00 pmol/min/mg protein in data set [6] (thiamethoxam to dm-clothianidin). Further, the “Species in which metabolite N-desmethyl-thiamethoxam was identified” value in data set [2] (substrate thiamethoxam 800 µM) is reported as “Chicken, Duck, Goose, Quail, Rat”. Besides, the “Species in which metabolite clothianidin was identified” value in data set [2] (substrate thiamethoxam 800 µM) is recorded as “Chicken, Duck, Goose, Quail, Rat”. Further, the “Species in which metabolite clothianidin-urea was identified” value in data set [2] (substrate thiamethoxam 800 µM) is listed as “Chicken, Duck, Goose, Quail, Rat”. Also, the “Species in which metabolite dm-clothianidin was identified” value in data set [2] (substrate thiamethoxam 800 µM) was “Chicken”. Besides, in data set [2] (substrate thiamethoxam 800 µM), the “Species in which metabolite thiamethoxam-urea was identified” value is “Chicken, Duck, Goose, Quail, Rat”.
Regarding `NC1=NCCN1Cc1ccc(Cl)nc1` [dn-imidacloprid, desnitro-imidacloprid], the “Affinity for nicotinic acetylcholine receptors” value in data set [7] (compared with imidacloprid) is given as “higher affinity for nicotinic acetylcholine receptors than imidacloprid”. Moreover, in the data set on fish leukocytes, the “Cytotoxicity potency on fish leukocytes” value is “higher cytotoxicity potency on fish leukocytes than their parent substances”.
For the molecule `NC(=O)N=C1SCCN1Cc1ccc(Cl)nc1` [thiacloprid-amide], in the data set on fish leukocytes, the “Cytotoxicity potency on fish leukocytes” value is given as “higher cytotoxicity potency on fish leukocytes than their parent substances”.
